Counter-ions that a name gives are not always drawn.
Columns and labels:
[1] = biological target: T1, vanilloid receptor 1 (VR1/TRPV1) of the rat species (Rattus norvegicus, UniProt O35433); assay: Functional study on vanilloid receptor 1, FLIPR Ca2+ assay in rat dorsal root ganglia cells; format: cell-based; conditions: for inhibition at 10 µM: 5 min incubation, then 100 nM capsaicin, relative to maximum inhibition with 10 μM capsaicin, read-out: VR1 (rat) (% inhibition compared to 10 μM CP); for activation at 10 µM: read-out: VR1 (rat) (% stimulation compared to 10 μM CP); for EC50: unit inferred
T1 construct: The spinal column is removed from beheaded rats; from tissue; host or cells: primary cells from rat dorsal root ganglia (DRGs)
Method: The agonistic or antagonistic action of the substances to be studied on the vanilloid receptor 1 (VR1/TRPV1) of the rat species can be determined with the following assay. In this assay, the Ca^2+ current through the receptor channel is quantified with the aid of a Ca^2+-sensitive dye (Fluo-4 type, Molecular Probes Europe BV, Leiden the Netherlands) in a fluorescent imaging plate reader (FLIPR, Molecular Devices, Sunnyvale, USA).
Complete medium: 50 ml HAMS F12 Nutrient Mixture (Gibco Invitrogen GmbH, Karlsruhe, Germany) with 10% by volume of FCS (fetal calf serum, Gibco Invitrogen GmbH, Karlsruhe, Germany, heat-inactivated);
2 mM L-glutamine (Sigma, Munich, Germany);
1% by weight of AA solution (antibiotic/antimycotic solution, PAA, Pasching, Austria) and 25 ng/ml of NGF medium (2.5 S, Gibco Invitrogen GmbH, Karlsruhe, Germany)
Cell culture plate: poly-D-lysine-coated, black 96-hole plates with a clear bottom (96 well black/clear plate, BD Biosciences, Heidelberg, Germany) are additionally coated with laminin (Gibco Invitrogen GmbH, Karlsruhe, Germany) by diluting laminin to a concentration of 100 μg/ml with PBS (Ca—Mg-free PBS, Gibco Invitrogen GmbH, Karlsruhe, Germany). Aliquots having a concentration of 100 μg/ml of laminin are withdrawn and stored at −20° C. The aliquots are diluted with PBS in a ratio of 1:10 to 10 μg/ml of laminin and in each case 50 μl of the solution are pipetted into a well of the cell culture plate. The cell culture plates are incubated at 37° C. for at least two hours, the supernatant solution is removed by suction and the wells are each washed twice with PBS. The coated cell culture plates are stored with supernatant PBS which is not removed until directly before the application of the cells.
The spinal column is removed from beheaded rats and placed directly into cold HBSS buffer (Hank's buffered saline solution, Gibco Invitrogen GmbH, Karlsruhe, Germany), i.e. placed in an ice bath, which has been admixed with 1% by volume of an AA solution (antibiotic/antimycotic solution, PAA, Pasching, Austria). The spinal column is severed longitudinally and removed from the spinal canal together with fasciae. Subsequently, the dorsal root ganglia (DRGs) are removed and in turn stored in cold HBSS buffer admixed with 1% by volume of an AA solution. The DRGs freed completely of blood residues and spinal nerves are in each case transferred to 500 μl of cold type 2 collagenase (PAA, Pasching, Austria) and incubated at 37° C. for 35 minutes. […] After complete incubation, the enzyme solution is cautiously pipetted off and the remaining DRGs are each suspended with 500 μl of complete medium.
The DRGs are each suspended repeatedly, drawn through cannulas No. 1, No. 12 and No. 16 by means of a syringe and transferred to 50 ml Falcon tubes which are made up to 15 ml with complete medium. The contents of each Falcon tube are in each case filtered through a 70 μm Falcon filter insert and centrifuged at 1200 revolutions and room temperature for 10 minutes. The resulting pellet is in each case taken up in 250 μl of complete medium and the cell count is determined.
The number of cells in the suspension is adjusted to 3 times 10^5 per ml and in each case 150 μl of this suspension are added to one well of the cell culture plates coated as described above.
Subsequently, the cells are laden with 2 μM Fluo-4 and 0.01% by volume of Pluronic F127 (Molecular Probes Europe BV, Leiden, the Netherlands) in HBSS buffer (Hank's buffered saline solution, Gibco Invitrogen GmbH, Karlsruhe, Germany) at 37° C. for 30 min, washed 3× with HBSS buffer and, after a further incubation of 15 minutes, used in the FLIPR assay at room temperature for Ca^2+ measurement. The Ca^2+-dependent fluorescence is measured before and after addition of substances (λex=488 nm, λem=540 nm). The quantification is effected by the measurement of the highest fluorescence intensity (FC, fluorescence counts) over the time.

VR1 (human) = biological target: T2, VR1 (human) (Homo sapiens, UniProt Q8NER1); assay: Functional study on vanilloid receptor (VR1), FLIPR Ca2+ assay in CHO K1 cells stably transfected with the VR1 gene; format: cell-based; conditions: for inhibition at 10 µM / activation at 10 µM: CHO-K1, test compound 10 μM; for inhibition at 10 µM: 5 min incubation, then 100 nM capsaicin, compared to 10 μM CP; for activation at 10 µM: Ca2+ signal relative to 10 μM capsaicin (CP), read-out: VR1 (human) (% stimulation compared to 10 μM CP); for EC50: unit inferred
T2 construct: expressed in transfected cells; host or cells: CHO K1 cells (ECACC), stably transfected
Source text: The agonistic or antagonistic action of the substances to be tested on vanilloid receptor (VR1) can also be determined with the assay which follows. In this assay, the Ca^2+ current through the channel is quantified with the aid of a Ca^2+-sensitive dye (Fluo-4 type, Molecular Probes, Europe BV, Leiden, the Netherlands) in a fluorescent imaging plate reader (FLIPR, Molecular Devices, Sunnyvale, USA).
Chinese hamster ovary cells (CHO K1 cells, European Collection of Cell Cultures (ECACC) Great Britain) are transfected stably with the VR1 gene. For functional studies, these cells are plated out onto poly-D-lysine-coated black 96-well plates with a clear bottom (BD Biosciences, Heidelberg, Germany) in a density of 25 000 cells/well. The cells are incubated overnight at 37° C. and 5% CO2 in a culture medium (Ham's Nutrient Mixture F12, 10% by volume of FCS (fetal calf serum), 18 μg/ml of L-proline). The next day, the cells are incubated with Fluo-4 (Fluo-4 2 μM, Pluronic F127 0.01% by volume, Molecular Probes in HBSS (Hank's buffered saline solution), Gibco Invitrogen GmbH, Karlsruhe, Germany) at 37° C. for 30 minutes. Subsequently, the plates are washed 3 times with HBSS buffer and, after a further incubation of 15 minutes at room temperature, used for Ca^2+ measurement in FLIPR. The Ca^2+-dependent fluorescence is measured before and after addition of the substances to be studied (wavelength λex=488 nm, λem=540 nm). The quantification is effected by measuring the highest fluorescence intensity (FC, fluorescence counts) over the time.
The FLIPR protocol consists of 2 substance additions. First, the substances to be tested (10 μM) are pipetted onto the cells and the Ca current is compared with the control (capsaicin 10 μM) (% activation based on the Ca^2+ signal after addition of 10 μM capsaicin). After incubation for 5 minutes, 100 nM capsaicin is applied and the current of Ca^2+ is likewise determined.

[2] = test compound 10 μM, Ca2+ signal relative to 10 μM capsaicin (CP)

T2 sequence (Q8NER1 whole entry): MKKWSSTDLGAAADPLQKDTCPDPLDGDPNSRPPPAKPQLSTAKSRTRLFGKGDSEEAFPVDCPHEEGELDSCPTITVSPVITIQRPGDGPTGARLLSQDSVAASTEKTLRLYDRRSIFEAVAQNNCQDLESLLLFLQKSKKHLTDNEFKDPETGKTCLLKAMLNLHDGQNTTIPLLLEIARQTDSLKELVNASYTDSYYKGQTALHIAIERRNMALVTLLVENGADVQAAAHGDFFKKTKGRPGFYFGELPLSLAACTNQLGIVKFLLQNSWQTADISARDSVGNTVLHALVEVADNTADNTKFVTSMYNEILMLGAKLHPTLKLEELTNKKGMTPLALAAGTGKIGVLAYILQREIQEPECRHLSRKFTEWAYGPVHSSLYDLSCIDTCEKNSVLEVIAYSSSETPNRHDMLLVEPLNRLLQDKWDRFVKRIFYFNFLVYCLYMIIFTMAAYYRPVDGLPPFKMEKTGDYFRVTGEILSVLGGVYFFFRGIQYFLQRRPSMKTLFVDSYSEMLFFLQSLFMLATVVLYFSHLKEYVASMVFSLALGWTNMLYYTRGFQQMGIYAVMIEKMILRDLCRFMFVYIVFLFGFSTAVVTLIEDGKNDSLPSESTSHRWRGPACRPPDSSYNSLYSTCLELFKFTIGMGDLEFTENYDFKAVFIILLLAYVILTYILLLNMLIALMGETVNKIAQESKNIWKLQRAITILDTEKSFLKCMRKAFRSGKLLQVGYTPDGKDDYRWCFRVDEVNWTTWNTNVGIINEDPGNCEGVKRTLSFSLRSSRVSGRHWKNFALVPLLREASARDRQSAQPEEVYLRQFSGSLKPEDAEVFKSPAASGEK
T1 sequence (O35433 whole entry): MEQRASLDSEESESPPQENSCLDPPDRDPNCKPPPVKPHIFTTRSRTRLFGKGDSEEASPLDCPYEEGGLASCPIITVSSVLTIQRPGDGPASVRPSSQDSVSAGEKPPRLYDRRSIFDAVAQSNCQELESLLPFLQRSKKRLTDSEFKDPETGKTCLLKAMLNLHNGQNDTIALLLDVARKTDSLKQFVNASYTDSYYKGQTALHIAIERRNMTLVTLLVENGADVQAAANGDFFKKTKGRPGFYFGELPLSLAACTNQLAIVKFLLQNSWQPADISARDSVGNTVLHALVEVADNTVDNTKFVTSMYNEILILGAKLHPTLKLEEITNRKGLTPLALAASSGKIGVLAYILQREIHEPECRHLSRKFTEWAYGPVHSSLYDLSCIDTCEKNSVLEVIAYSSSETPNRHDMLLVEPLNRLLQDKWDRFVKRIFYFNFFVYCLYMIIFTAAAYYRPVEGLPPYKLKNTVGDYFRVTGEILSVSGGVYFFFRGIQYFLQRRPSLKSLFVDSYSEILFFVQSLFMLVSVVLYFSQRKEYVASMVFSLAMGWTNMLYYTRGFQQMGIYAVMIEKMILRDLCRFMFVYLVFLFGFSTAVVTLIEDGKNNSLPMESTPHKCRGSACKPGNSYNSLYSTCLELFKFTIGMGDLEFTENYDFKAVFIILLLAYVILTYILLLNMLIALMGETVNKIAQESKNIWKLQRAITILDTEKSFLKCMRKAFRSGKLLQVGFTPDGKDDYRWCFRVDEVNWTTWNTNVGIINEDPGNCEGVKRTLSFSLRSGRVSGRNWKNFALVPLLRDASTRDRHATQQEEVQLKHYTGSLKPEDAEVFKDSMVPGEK

inhibition at 10 µM ([1]; test compound 10 μM) | activation at 10 µM [1, 2] | inhibition at 10 µM (VR1 (human)) | activation at 10 µM (VR1 (human)) | EC50 [1] | EC50 (VR1 (human)) | VR1 (rat) (% stimulation compared to 10 μM CP) [1, 2] | Compound
68.4% | 54% | 54.3% | 55.4% |  |  |  | O=C1N=C(N2CCOCC2)SC1=CC=CSc1ccccc1 [Example 12, 2-morpholin-4-yl-5-(3-phenylsulfanylallylidene)thiazol-4-one]
46.2% | 42.1% | 11.1% | 6.15% |  |  |  | COc1ccc(C=C2SC(N3CCOCC3)=NC2=O)cc1OCc1ccccc1 [Example 13, 5-(3-benzyloxy-4-methoxybenzylidene)-2-morpholin-4-ylthiazol-4-one]
82.1% | 108% | 89.4% | 107% | 0.95 µM | 5.17 µM |  | Cc1ccc(C=C2SC(N3CCSCC3)=NC2=O)cc1 [Example 14, 5-(4-methylbenzylidene)-2-thiomorpholin-4-ylthiazol-4-one hydrobromide]
91.1% | 120% | 19.6% | 46% | 6.36 µM | 17.8 µM |  | O=C1N=C(N2CCOCC2)SC1=Cc1ccc(Oc2ccccc2)cc1 [Example 17, 2-morpholin-4-yl-5-(4-phenoxybenzylidene)thiazol-4-one]
88% | 144% | 79.2% | 139% | 1.29 µM | 3.65 µM |  | O=C1N=C(N2CCOCC2)SC1=Cc1cccc(Oc2ccccc2)c1 [Example 18, 2-morpholin-4-yl-5-(3-phenoxybenzylidene)thiazol-4-one]
31.4% | 11.7% | 10.8% | 8.82% | 7.76 µM | 13 µM |  | Cc1ccc(C=CC=C2SC(N3CCOCC3)=NC2=O)cc1 [Example 19, 2-morpholin-4-yl-5-(3-p-tolylallylidene)thiazol-4-one]
50.1% | 55.8% | 28.5% | 36.5% | 6.59 µM | 8.51 µM |  | O=C1N=C(N2CCOCC2)SC1=Cc1ccc(OCc2ccccc2)cc1 [Example 21, 5-(4-benzyloxybenzylidene)-2-morpholin-4-ylthiazol-4-one]
88.1% | 116% | 80.8% | 64% | 8.48 µM | 9.06 µM |  | O=C1N=C(N2CCSCC2)SC1=Cc1ccccc1C(F)(F)F [Example 22, 2-thiomorpholin-4-yl-5-(2-trifluoromethylbenzylidene)thiazol-4-one]
91.3% | 110% | 61.6% | 61.3% | 11.9 µM | > 25 µM |  | O=C1N=C(N2CCSCC2)SC1=Cc1ccc(OC(F)(F)F)cc1 [Example 24, 2-thiomorpholin-4-yl-5-(4-trifluoromethoxybenzylidene)thiazol-4-one]
87.2% |  | 37.6% | 29.1% |  |  | 80.77% | O=C1N=C(N2CCSCC2)SC1=CC=Cc1ccccc1 [Example 25, 5-(3-phenylallylidene)-2-thiomorpholin-4-ylthiazol-4-one]
97% | 0.92% | 73.3% | 0.06% |  |  |  | Cc1ccc(C=C2SC(N3CCN(c4ncccc4Cl)CC3)=NC2=O)cc1 [Example 30, 2-[4-(3-chloropyridin-2-yl)piperazin-1-yl]-5-(4-methylbenzylidene)thiazol-4-one]
64.8% | 49.6% | 14.7% | 25.7% |  |  |  | CC(=CC=C1SC(N2CCOCC2)=NC1=O)c1ccc(C)cc1 [Example 33, 2-morpholin-4-yl-5-(3-p-tolylbut-2-enylidene)thiazol-4-one]
88% | 101% | 89.3% | 111% |  |  |  | CC(=CC=C1SC(N2CCOCC2)=NC1=O)c1ccc(C(C)(C)C)cc1 [Example 34, 5-[3-(4-tert-butylphenyl)but-2-enylidene]-2-morpholin-4-ylthiazol-4-one]
101% | 67.7% | 68.8% | 47.4% |  |  |  | O=C1N=C(N2CCOCC2)SC1=Cc1ccc(OC(F)(F)F)cc1 [Example 36, 2-morpholin-4-yl-5-(4-trifluoromethoxybenzylidene)thiazol-4-one]
51% | 31.2% | 23.7% | 18.9% |  |  |  | COc1cc(C=C2SC(N3CCSCC3)=NC2=O)ccc1O [Example 39, 5-(4-hydroxy-3-methoxybenzylidene)-2-thiomorpholin-4-ylthiazol-4-one]
90.9% | 87% | 22.6% | 0.47% | 5.82 µM | 10.6 µM |  | O=C1N=C(N2CCSCC2)SC1=Cc1cccc2ccccc12 [Example 41, 5-naphthalen-1-ylmethylene-2-thiomorpholin-4-ylthiazol-4-one]
93.1% | 98.3% | 50.2% | 49.7% |  |  |  | O=C1N=C(N2CCSCC2)SC1=Cc1ccccc1 [Example 42, 5-benzylidene-2-thiomorpholin-4-ylthiazol-4-one]

Reference: patent publication US20090215758A1, “Use of 2,5-Disubstituted Thiazol-4-One Derivatives in Drugs” (Gruenenthal GmbH, priority 2005, published 2009)
